# According to patent US20260000642A1 (Tay Therapeutics Limited, priority 2022, published 2026):
# Experiments:
# [1] = Sprague-Dawley rat pharmacokinetics (IV and PO); type: in vivo; conditions: rat, plasma; male Sprague-Dawley rats, PO 5 mg/kg (IV 1 mg/kg), cassette mode, Method 1; read-out: PO F (%)
# How it was run: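 Male Sprague-Dawley rats (2 per arm) dosed in cassette (up to 5 compounds) at 1 mg/kg IV and 5 mg/kg PO, formulated in 5% DMSO/40% PEG-400/55% water. Plasma sampled over time, acetonitrile-precipitated with internal standard, and quantified by LC/MS/MS against matrix-matched standards.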
# [2] = Beagle dog PK study 2 (IV, HPβCD based formulation); type: in vivo
# Protocol: The purpose of this study was to examine the pharmacokinetics of Example 101 in beagle dogs. […] An oral PK study was also undertaken in Lewis rats—see Experimental Method C.
# Body weight was recoded prior to dosing, and detailed clinical observations were made prior to dosing and throughout the study, as needed.
# 78.646 mL of HPβCD (20% solution w/v) was then added with vortex and sonication.
# Blood samples (˜0.3 mL) were collected according to a schedule (shown below) by venipuncture of peripheral veins except for the dosing vein, and EDTA-K2 was used as anticoagulant. Within 30 minutes of collection, the samples were centrifuged at approximately 2000× g for 10 minutes at 4° C. to obtain blood plasma. The plasma samples were immediately divided into two aliquots (˜75 μL each), transferred to a cryogenic vial, and stored in a freezer at −75±15° C. prior to analysis.
# Blood samples were collected at 0.083, 0.25, 0.5, 1, 2, 4, 8, and 24 h following the initial dosing (0 h).
# The experiments were conducted on a Shimadzu DGU-20A5R and AB API 5500+LC/MS/MS instrument with an Agilent Poroshell EC-C18 4 μm (50×2.1 mm) column. A gradient of 95% water (0.1% formic acid)/95% acetonitrile (0.1% formic acid) was used as the mobile phase. The sample injection volume was 1 μL, and the flow rate was 0.6 mL/min. The gathered data were used for pharmacokinetic calculations using T½, C0, AUClast, AUCinf, MRTinf, CI, Vss, and Number of Points for Regression as parameters.
# [3] = test system: CXCL10; assay: Human PBMC assay, CXCL10 by ELISA (IFN-γ stimulation); type: cell-based
# Protocol: The impact of Examples 23, 80, and 101 on IL-17A, IL-22, and CXCL10 levels was analyzed in cryopreserved human peripheral blood mononuclear cells (PBMC) by ELISA.
# For IL-17A and IL-22 assays, Examples 23, 80, and 101 were serially diluted from 10 mM in DMSO and further diluted in assay media to 100× the required final concentration, of which, 2 μL was added per well to a round-bottom 96-well tissue culture plate where the final DMSO concentration per well was 0.1%. CD2, CD3, and CD28 antibody-coated beads from the T-cell activation/expansion kit (Miltenyi Biotec) were added to the PBMC at a bead-to-cell ratio of 1:2. The mixture of PBMCs and beads were seeded into the wells of the round-bottom 96-well plate at a concentration of 2×10^5 cells/well in a total volume of 200 μL. The cells were cultured for 72 hours at 37° C. and 5% CO2 and then supernatants were collected and IL-17A and IL-22 levels were measured by ELISA. For the CXCL10 assay, Examples 23, 80, and 101 were serially diluted from 10 mM in DMSO and further diluted in assay media to 100× the required final concentration, of which 2 μL was added per well to a 96-well tissue culture plate. The final compound concentration ranged from 30,000 nM to 0.005 nM and the final DMSO concentration per well was 0.3%. PBMCs were seeded at approximately […] in the wells of the 96-well tissue culture plate in a total volume of 190 μL. The plate was incubated for 1 hour at 37° C. and 5% CO2. The cells were then stimulated with IFN-γ (15 ng/mL final concentration) in a volume of 10 μL. The cells were then cultured for 24 hours at 37° C. and 5% CO2. The supernatant was collected and CXCL10 levels were measured by ELISA.
# [4] = test system: Col1a1, TGF-b1, MCP-1, IL-1b, IL-6, IL-17, TNF-a, and Timp1; assay: UUO model: kidney tissue biomarker mRNA by RT-PCR; type: in vivo, rat; conditions: UUO rats; 30 mg/kg
# From the text: Serum for blood biochemistry analysis was collected into centrifuge tubes without coagulant four hours after final dosing. Blood plasma samples from group 3 was collected into tubes with K2EDTA four hours after final dosing. At the conclusion of the study (end of the 14-day period), animals were euthanized. Kidney tissue was collected four hours after final dosing. Ligated side kidney was divided into three copies 1/3 fix into 10% formalin for H&E analysis, 1/3 into RNA for PCR analysis of tissue biomarkers Col1a1, TGF-b1, MCP-1, IL-1b, IL-6, IL-17, TNF-a, and Timp1, and 1/3 for hydroxyproline assay analyzed by ELISA. RNA was extracted from tissue using the RNeasy mini kit (Qiagen). RNA concentration was measured using a NanoDrop One Spectrophotometer (ThermoFisher) and converted to cDNA using a High-Capacity RNA-to-cDNA kit (Invitrogen). RT-PCR was performed to measure levels of mRNA of different targets using TaqMan® Gene Expression Master Mix and TaqMan® probe/primer sets on a QuantStudio 6 Real-Time PCR System (ThermoFisher). Fold change in target gene expression was determined using the ΔΔCt method.
smiles,measurement,setting,value
"CNC(=O)c1[nH]c(C(=O)NC2CCC2)cc1O[C@@H](C)c1ccccc1 [Example 101, N^5-cyclobutyl-N^2-methyl-3-(1-phenylethoxy)-1H-pyrrole-2,5-dicarboxamide]",bioavailability,[1],66%
same,"AUClast/D, Mean","[2]; PK study 2, IV 1 mg/kg",977 (ng · h/mL)/(mg/kg)
same,"AUC—% Extrap_obs, Mean","[2]; PK study 2, IV 1 mg/kg",0.689%
same,"C0, Mean","[2]; PK study 2, IV 1 mg/kg",1875 ng/mL
same,"Cl_obs, Mean","[2]; PK study 2, IV 1 mg/kg",18.3 mL/min/kg
same,"Vssz_obs, Mean","[2]; PK study 2, IV 1 mg/kg",0.864 L/kg
same,"Average plasma concentration, Mean","[2]; PK study 2, IV 1 mg/kg, 24 h",BLOQ
same,Vssz_obs,"[2]; PK study 2, IV 1 mg/kg, Test Animal 1",0.838 L/kg
same,Vssz_obs,"[2]; PK study 2, IV 1 mg/kg, Test Animal 2",0.886 L/kg
same,Vssz_obs,"[2]; PK study 2, IV 1 mg/kg, Test Animal 3",0.868 L/kg
same,clinical observations after intravenous administration,"[2]; beagle dogs, PK study 2, IV, 0.5 mg/mL in HPβCD (20% solution w/v)/DMSO (99/1)",soft feces
same,selectivity to induction of CXCL10 relative to IL-17A and IL-22,[3],showed selectivity
same,IC50 for CXCL-10 relative to GSK620,"[3]; IFN-γ, 24 hours, ELISA",substantially lower 1050
same,expression of IL-17 relative to UUO + vehicle,[4],limited effect
same,expression of TNF-a relative to UUO + vehicle,[4],limited effect
same,tissue RNA level of Col1a1 relative to UUO + vehicle,[4],reduced
same,tissue RNA level of IL-1b relative to UUO + vehicle,[4],reduced
same,tissue RNA level of IL-6 relative to UUO + vehicle,[4],reduced
same,tissue RNA level of MCP-1 relative to UUO + vehicle,[4],reduced
same,tissue RNA level of TGB-b1 relative to UUO + vehicle,[4],reduced
same,tissue RNA level of Timp1 relative to UUO + vehicle,[4],reduced
